In publication PMC7465669, “Screening of Heteroaromatic Scaffolds against Cystathionine Beta-Synthase Enables Identification of Substituted Pyrazolo[3,4-c]Pyridines as Potent and Selective Orthosteric Inhibitors” (Molecules, 2020) one finds IC50 data, which are given here for one compound.

The target of this experiment is T1, cystathionine β-synthase (CBS) (Homo sapiens, UniProt P35520).
T1 construct: full-length human CBS, GST-fusion
T1 sequence (P35520 1-551): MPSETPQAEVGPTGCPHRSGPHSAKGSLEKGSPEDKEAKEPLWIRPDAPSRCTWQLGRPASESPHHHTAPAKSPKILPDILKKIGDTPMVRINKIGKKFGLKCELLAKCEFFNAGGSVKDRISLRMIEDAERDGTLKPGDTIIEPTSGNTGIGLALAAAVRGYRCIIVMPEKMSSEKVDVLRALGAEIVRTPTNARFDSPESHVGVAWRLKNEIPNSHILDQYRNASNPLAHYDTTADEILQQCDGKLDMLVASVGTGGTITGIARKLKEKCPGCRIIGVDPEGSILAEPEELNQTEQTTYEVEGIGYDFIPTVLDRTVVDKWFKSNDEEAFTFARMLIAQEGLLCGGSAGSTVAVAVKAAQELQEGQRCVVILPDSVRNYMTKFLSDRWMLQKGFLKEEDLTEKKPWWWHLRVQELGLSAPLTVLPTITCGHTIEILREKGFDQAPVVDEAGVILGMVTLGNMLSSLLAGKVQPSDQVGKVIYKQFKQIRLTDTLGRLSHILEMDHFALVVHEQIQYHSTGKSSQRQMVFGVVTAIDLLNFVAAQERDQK
Description: methylene blue H2S assay, recombinant enzyme; confirmed by AzMC assay (IC50 […]). It is filed as biochemical.

Molecules are shown by their SMILES.

With `COc1ccc(Cn2ncc3cc(Nc4ccc(N5CCN(C)CC5)cc4)nc(N4CCN(C)CC4)c32)cc1` [compound 1, 1], the IC50 (commonly the midpoint of a concentration-inhibition curve) came out at 11 µM.
